Columns and labels:
Mino cells = assay: Antiproliferative effect, MTS cell viability assay, Mino cells; type: cell-based; settings: Homo sapiens, MINO, Mino mantle cell lymphoma cells; read-out: IC50 (anti-proliferation) Mino cells
Description: (§1) Antiproliferative effect of the exemplary compounds was assessed in B-cell malignancy models.
(§2) To assess the effect of the exemplary compounds on cell viability in B-cell malignancy models by degradation of BTK protein, Mino and JeKo-1 cells were treated with varying concentrations of Ibrutinib (0, 0.001, 0.01, 0.1, 1, 10 μM). Under these conditions, cell viability was determined by an MTS assay. Cytotoxicity was assayed by the determination of reduced tetrazolium (formazan) created by metabolically active cells as detected at 490 nm absorbance using a microplate reader (BMG Labtech, Cary, NC, USA).
(§3) The exemplary compounds attenuated the viability of Mino and JeKo-1 cells in a concentration-dependent manner at 72 h post treatment. Results are shown in Table 1 for each exemplary compound.

JeKo-1 cells = assay: Antiproliferative effect, MTS cell viability assay, JeKo-1 cells; type: cell-based; settings: Homo sapiens; JeKo-1 mantle cell lymphoma cells; read-out: IC50 (anti-proliferation) JeKO-1 cells
Description: as §1, §2, §3

BTK = BTK (Homo sapiens, UniProt Q06187); assay: Degradation of BTK protein in Namalwa cells (Western blot; DC50, Dmax); settings: for DC50: BTK degradation, cell line not given
Chain of BTK (Q06187 whole entry): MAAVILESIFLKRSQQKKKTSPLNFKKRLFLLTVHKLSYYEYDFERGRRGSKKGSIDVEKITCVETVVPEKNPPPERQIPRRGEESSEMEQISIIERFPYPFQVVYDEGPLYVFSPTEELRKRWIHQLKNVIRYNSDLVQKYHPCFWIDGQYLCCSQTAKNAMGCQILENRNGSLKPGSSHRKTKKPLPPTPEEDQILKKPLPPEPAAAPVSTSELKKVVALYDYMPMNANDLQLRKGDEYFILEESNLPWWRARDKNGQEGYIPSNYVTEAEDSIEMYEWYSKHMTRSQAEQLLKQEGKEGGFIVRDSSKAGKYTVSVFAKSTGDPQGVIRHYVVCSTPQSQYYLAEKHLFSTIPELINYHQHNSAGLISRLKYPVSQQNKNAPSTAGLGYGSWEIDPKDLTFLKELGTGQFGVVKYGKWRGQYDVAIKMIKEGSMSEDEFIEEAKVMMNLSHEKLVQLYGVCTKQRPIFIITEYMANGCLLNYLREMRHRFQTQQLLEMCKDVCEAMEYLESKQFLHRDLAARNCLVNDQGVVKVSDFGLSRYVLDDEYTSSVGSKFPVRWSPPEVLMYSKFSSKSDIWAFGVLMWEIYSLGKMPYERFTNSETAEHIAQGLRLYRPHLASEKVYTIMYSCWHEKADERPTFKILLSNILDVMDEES

| Structure (SMILES) | IC50 (Mino cells) [nM] | IC50 (JeKo-1 cells) [nM] | Dmax (BTK) [%] | DC50 (BTK) [nM] |
| --- | --- | --- | --- | --- |
| Nc1ncnc2c1c(-c1ccc(Oc3ccccc3)cc1)nn2C1CCN(C2CCN(CCCN3CCN(c4ccc5c(c4)CN(C4CCC(=O)NC4=O)C5=O)CC3)CC2)CC1 (centres unmarked) [Compound 222, 3-(5-(4-(3-(4-(4-amino-3-(4-phenoxyphenyl)-1H-pyrazolo[3,4-d]pyrimidin-1-yl)-[1,4′-bipiperidin]-1′-yl)propyl)piperazin-1-yl)-1-oxoisoindolin-2-yl)piperidine-2,6-dione] | 1000 to 10000 | 1000 to 10000 | > 90 | 10 to 50 |
| Nc1ncnc2c1c(-c1ccc(Oc3ccccc3)cc1)nn2C1CCN(C2CCN(CCCN3CCC(c4ccc5c(c4)C(=O)N(C4CCC(=O)NC4=O)C5=O)CC3)CC2)CC1 (centres unmarked) [Compound 223, 5-(1-(3-(4-(4-amino-3-(4-phenoxyphenyl)-1H-pyrazolo[3,4-d]pyrimidin-1-yl)-[1,4′-bipiperidin]-1′-yl)propyl)piperidin-4-yl)-2-(2,6-dioxopiperidin-3-yl)isoindoline-1,3-dione] | 1000 to 10000 | 1000 to 10000 | > 75 | 10 to 50 |
| Nc1ncnc2c1c(-c1ccc(Oc3ccccc3)cc1)nn2C1CCN(C2CCN(CCCN3CCC(c4ccc5c(c4)CN(C4CCC(=O)NC4=O)C5=O)CC3)CC2)CC1 (centres unmarked) [Compound 224, 3-(5-(1-(3-(4-(4-amino-3-(4-phenoxyphenyl)-1H-pyrazolo[3,4-d]pyrimidin-1-yl)-[1,4′-bipiperidin]-1′-yl)propyl)piperidin-4-yl)-1-oxoisoindolin-2-yl)piperidine-2,6-dione] | 1000 to 10000 | 1000 to 10000 | > 75 | 10 to 50 |
| Nc1ncnc2c1c(-c1ccc(Oc3ccccc3)cc1)nn2C1CCN(C2CCN(CCCC3CCN(c4ccc5c(c4)C(=O)N(C4CCC(=O)NC4=O)C5=O)CC3)CC2)CC1 (centres unmarked) [Compound 225, 5-(4-(3-(4-(4-amino-3-(4-phenoxyphenyl)-1H-pyrazolo[3,4-d]pyrimidin-1-yl)-[1,4′-bipiperidin]-1′-yl)propyl)piperidin-1-yl)-2-(2,6-dioxopiperidin-3-yl)isoindoline-1,3-dione] | > 10000 | > 10000 | > 75 | > 50 |
| Nc1ncnc2c1c(-c1ccc(Oc3ccccc3)cc1)nn2C1CCN(C2CCN(CCCC3CCN(c4ccc5c(c4)CN(C4CCC(=O)NC4=O)C5=O)CC3)CC2)CC1 (centres unmarked) [Compound 226, 3-(5-(4-(3-(4-(4-amino-3-(4-phenoxyphenyl)-1H-pyrazolo[3,4-d]pyrimidin-1-yl)-[1,4′-bipiperidin]-1′-yl)propyl)piperidin-1-yl)-1-oxoisoindolin-2-yl)piperidine-2,6-dione] | 1000 to 10000 | > 10000 | > 75 | 10 to 50 |
| Nc1ncnc2c1c(-c1ccc(Oc3ccccc3)cc1)nn2C1CCN(C2CCN(C(=O)N3CCC(c4ccc5c(c4)C(=O)N(C4CCC(=O)NC4=O)C5=O)CC3)CC2)CC1 (centres unmarked) [Compound 227, 5-(1-(4-(4-amino-3-(4-phenoxyphenyl)-1H-pyrazolo[3,4-d]pyrimidin-1-yl)-[1,4′-bipiperidine]-1′-carbonyl)piperidin-4-yl)-2-(2,6-dioxopiperidin-3-yl)isoindoline-1,3-dione] | > 10000 | > 10000 | > 50 | > 50 |
| Nc1ncnc2c1c(-c1ccc(Oc3ccccc3)cc1)nn2C1CCN(C2CCN(C(=O)N3CCC(c4ccc5c(c4)CN(C4CCC(=O)NC4=O)C5=O)CC3)CC2)CC1 (centres unmarked) [Compound 228, 3-(5-(1-(4-(4-amino-3-(4-phenoxyphenyl)-1H-pyrazolo[3,4-d]pyrimidin-1-yl)-[1,4′-bipiperidine]-1′-carbonyl)piperidin-4-yl)-1-oxoisoindolin-2-yl)piperidine-2,6-dione] | > 10000 | > 10000 | > 50 | > 50 |
| Nc1ncnc2c1c(-c1ccc(Oc3ccccc3)cc1)nn2C1CCN(C2CCN(C(=O)N3CCN(c4ccc5c(c4)C(=O)N(C4CCC(=O)NC4=O)C5=O)CC3)CC2)CC1 (centres unmarked) [Compound 229, 5-(4-(4-(4-amino-3-(4-phenoxyphenyl)-1H-pyrazolo[3,4-d]pyrimidin-1-yl)-[1,4′-bipiperidine]-1′-carbonyl)piperazin-1-yl)-2-(2,6-dioxopiperidin-3-yl)isoindoline-1,3-dione] | > 10000 | 1000 to 10000 | > 50 | > 50 |
| Nc1ncnc2c1c(-c1ccc(Oc3ccccc3)cc1)nn2C1CCN(C2CCN(C(=O)N3CCN(c4ccc5c(c4)CN(C4CCC(=O)NC4=O)C5=O)CC3)CC2)CC1 (centres unmarked) [Compound 230, 3-(5-(4-(4-(4-amino-3-(4-phenoxyphenyl)-1H-pyrazolo[3,4-d]pyrimidin-1-yl)-[1,4′-bipiperidine]-1′-carbonyl)piperazin-1-yl)-1-oxoisoindolin-2-yl)piperidine-2,6-dione] | 1000 to 10000 | 1000 to 10000 | > 50 | > 50 |
| Nc1ncnc2c1c(-c1ccc(Oc3ccccc3)cc1)nn2C1CCN(C2CCN(C(=O)N3CCC(N4CCN(c5ccc6c(c5)C(=O)N(C5CCC(=O)NC5=O)C6=O)CC4)CC3)CC2)CC1 (centres unmarked) [Compound 231, 5-(4-(1-(4-(4-amino-3-(4-phenoxyphenyl)-1H-pyrazolo[3,4-d]pyrimidin-1-yl)-[1,4′-bipiperidine]-1′-carbonyl)piperidin-4-yl)piperazin-1-yl)-2-(2,6-dioxopiperidin-3-yl)isoindoline-1,3-dione] | 1000 to 10000 | 1000 to 10000 | > 90 | 10 to 50 |
| Nc1ncnc2c1c(-c1ccc(Oc3ccccc3)cc1)nn2C1CCN(C2CCN(C(=O)N3CCC(N4CCN(c5ccc6c(c5)CN(C5CCC(=O)NC5=O)C6=O)CC4)CC3)CC2)CC1 (centres unmarked) [Compound 232, 3-(5-(4-(1-(4-(4-amino-3-(4-phenoxyphenyl)-1H-pyrazolo[3,4-d]pyrimidin-1-yl)-[1,4′-bipiperidine]-1′-carbonyl)piperidin-4-yl)piperazin-1-yl)-1-oxoisoindolin-2-yl)piperidine-2,6-dione] | 1000 to 10000 | 1000 to 10000 | > 90 | < 10 |
| Nc1ncnc2c1c(-c1ccc(Oc3ccccc3)cc1)nn2C1CCN(C2CCN(C(=O)N3CCN(C4CCN(c5ccc6c(c5)C(=O)N(C5CCC(=O)NC5=O)C6=O)CC4)CC3)CC2)CC1 (centres unmarked) [Compound 233, 5-(4-(4-(4-(4-amino-3-(4-phenoxyphenyl)-1H-pyrazolo[3,4-d]pyrimidin-1-yl)-[1,4′-bipiperidine]-1′-carbonyl)piperazin-1-yl)piperidin-1-yl)-2-(2,6-dioxopiperidin-3-yl)isoindoline-1,3-dione] | 1000 to 10000 | 1000 to 10000 | > 75 | > 50 |
| Nc1ncnc2c1c(-c1ccc(Oc3ccccc3)cc1)nn2C1CCN(C2CCN(C(=O)N3CCN(C4CCN(c5ccc6c(c5)CN(C5CCC(=O)NC5=O)C6=O)CC4)CC3)CC2)CC1 (centres unmarked) [Compound 234, 3-(5-(4-(4-(4-(4-amino-3-(4-phenoxyphenyl)-1H-pyrazolo[3,4-d]pyrimidin-1-yl)-[1,4′-bipiperidine]-1′-carbonyl)piperazin-1-yl)piperidin-1-yl)-1-oxoisoindolin-2-yl)piperidine-2,6-dione] | 1000 to 10000 | 1000 to 10000 | > 75 | 10 to 50 |
| Nc1ncnc2c1c(-c1ccc(Oc3ccccc3)cc1)nn2C1CCN(C2CCN(C(=O)N3CCC(N4CCC(c5ccc6c(c5)C(=O)N(C5CCC(=O)NC5=O)C6=O)CC4)CC3)CC2)CC1 (centres unmarked) [Compound 235, 5-(1′-(4-(4-amino-3-(4-phenoxyphenyl)-1H-pyrazolo[3,4-d]pyrimidin-1-yl)-[1,4′-bipiperidine]-1′-carbonyl)-[1,4′-bipiperidin]-4-yl)-2-(2,6-dioxopiperidin-3-yl)isoindoline-1,3-dione] | 1000 to 10000 | 1000 to 10000 | > 90 | 10 to 50 |
| Nc1ncnc2c1c(-c1ccc(Oc3ccccc3)cc1)nn2C1CCN(C2CCN(C(=O)N3CCC(N4CCC(c5ccc6c(c5)CN(C5CCC(=O)NC5=O)C6=O)CC4)CC3)CC2)CC1 (centres unmarked) [Compound 236, 3-(5-(1′-(4-(4-amino-3-(4-phenoxyphenyl)-1H-pyrazolo[3,4-d]pyrimidin-1-yl)-[1,4′-bipiperidine]-1′-carbonyl)-[1,4′-bipiperidin]-4-yl)-1-oxoisoindolin-2-yl)piperidine-2,6-dione] | 1000 to 10000 | 1000 to 10000 | > 90 | 10 to 50 |
| Nc1ncnc2c1c(-c1ccc(Oc3ccccc3)cc1)nn2C1CCN(C2CCN(C(=O)N3CCC(CC4CCN(c5ccc6c(c5)C(=O)N(C5CCC(=O)NC5=O)C6=O)CC4)CC3)CC2)CC1 (centres unmarked) [Compound 237, 5-(4-((1-(4-(4-amino-3-(4-phenoxyphenyl)-1H-pyrazolo[3,4-d]pyrimidin-1-yl)-[1,4′-bipiperidine]-1′-carbonyl)piperidin-4-yl)methyl)piperidin-1-yl)-2-(2,6-dioxopiperidin-3-yl)isoindoline-1,3-dione] | < 1000 | 1000 to 10000 | > 90 | 10 to 50 |
| Nc1ncnc2c1c(-c1ccc(Oc3ccccc3)cc1)nn2C1CCN(C2CCN(C(=O)N3CCC(CC4CCN(c5ccc6c(c5)CN(C5CCC(=O)NC5=O)C6=O)CC4)CC3)CC2)CC1 (centres unmarked) [Compound 238, 3-(5-(4-((1-(4-(4-amino-3-(4-phenoxyphenyl)-1H-pyrazolo[3,4-d]pyrimidin-1-yl)-[1,4′-bipiperidine]-1′-carbonyl)piperidin-4-yl)methyl)piperidin-1-yl)-1-oxoisoindolin-2-yl)piperidine-2,6-dione] | < 1000 | 1000 to 10000 | > 90 | < 10 |
